Patent US20240165120A1, “TREATING CANCER IN PATIENT HAVING CO-OCCURRING GENETIC ALTERATION IN FGFR2 AND A CANCER DRIVER GENE” (TAIHO PHARMACEUTICAL CO., LTD., priority 2021, published 2024)

What was measured:
[1] = Crystal form stability; details: crystal forms defined by XRPD peaks
[2] = Crystal form oral absorbability; details: crystal forms defined by XRPD peaks
[3] = test system: advanced iCCA; details: 1st line; patients with advanced iCCA; cited from earlier work

Compound | stability [1] | oral absorbability [2] | overall survival [3]
C=CC(=O)N1CC[C@H](n2nc(C#Cc3cc(OC)cc(OC)c3)c3c(N)ncnc32)C1 [Compound (1), (S)-1-[(3)-[4-amino-3-[(3,5-dimethoxyphenyl)ethynyl]-1H-pyrazolo[3,4-d]pyrimidin-1-yl]-1-pyrrolidinyl]-2-propen-1-one] | good stability | excellent oral absorbability | 
Gemcitabine-cisplatin |  |  | 1 year
